The values that follow are results of earlier work, collected in US20260137642A1 (CANCER PREVENTION PHARMACEUTICALS, INC., priority 2021, published 2026).

Each structure is given as a SMILES string.

The conditions of series [1]: in vivo; cited from earlier work.
For series [2] the following is noted: phase II study; cited from earlier work.
For series [3] the following is noted: cited from earlier work.
The conditions of series [4]: cited from earlier work. This is another data set of the same source.

Consider `Cc1ccc(-c2cc(C(F)(F)F)nn2-c2ccc(S(N)(=O)=O)cc2)cc1` [Celecoxib, 4-[5-(4-Methylphenyl)-3-(trifluoromethyl)pyrazol-1-yl]benzenesulfonamide], for which, in series [1], the “Increase in rates of heart and blood vessel disease” value is 30%; the “Risk of gastrointestinal side effects” value is “greater than 80%”.

Take `CCNCCCNCCCNCCCNCC` [DENSPM]: the Tolerability result in series [2] is given as “well-tolerated”.

For `CC1=C(CC(=O)O)c2cc(F)ccc2/C1=C\c1ccc([S+](C)[O-])cc1` (centres unmarked) [Sulindac, (Z)-5-fluoro-2-methyl-1-((4-(methylsulfinyl)phenyl)methylene)-1H-indene-3-acetic acid], the “Fraction of the drug absorbed” value in series [3] (after oral administration) is recorded as “about 90%”. Besides, the “Time to peak plasma levels” value in series [3] (fasting patients) is “about 2 hours”. Besides, the “Patients with mild gastrointestinal effects” value in series [4] (abdominal pain and nausea most frequent) was ~20%. The “Patients with skin rash and pruritus” value in series [4] (human, in vivo) is 5%.

As for `CSc1ccc(/C=C2/C(C)=C(CC(=O)O)c3cc(F)ccc32)cc1` [sulfide metabolite], the Mean half-life in series [3] (in vivo) is 16.4 h.
